Measurements as given in patent US20250074891A1 (Anaxis Pharma Pty Ltd., priority 2021, published 2025).

Key:
[1] = system: U937 human histiocytic leukemia cell line; experiment: Cellular assay: inhibition of TSQ induced necroptosis (CellTitre-Glo); conditions: Homo sapiens, U-937; U937 cells, TSQ cocktail, 48 hours, Table 38; read-out: Inhibition of TSQ-induced necroptosis (IC50 cell-based assay)
Description: […] ASSAY: Screening compounds for inhibition of TSQ induced necroptosis, 384 well plate format.
Cell Line ID: U937 human histiocytic leukemia cell line.
Cell Concentration (cells/well): Final cell density is 20,000 cells per well.
Cell growth medium: HT-RPMI medium+7.4% Fetal Bovine Serum (FBS). Cells are cultured in Corning 150 cm^z tissue culture flasks with vented caps at 37° C./5% CO2.
Incubation: Plates were incubated at 37° C./5% CO2 in a humidified incubator for 48 hours following addition of compounds and death stimuli (TSQ cocktail).
Compound concentration: 36 μM starting concentration, 1:3 dilution, 10 point
DMSO final concentration (% v/v): 0.3%.
Compounds in TSQ cocktail (T: TNF; S: Smac mimetic; Q: Q-VD-OPh) and their final concentrations: • hTNF-Fc (100 ng/ml)—produced by standard procedures as shown in Bossen et al., J Biol Chem, 2006, 281(20), 13964-13971. • Compound A (500 nM)—Smac mimetic, Tetralogic and SYNthesis med chem • Q-VD-OPh (10 μM)—MP Biomedicals
The cellular assay was carried out according to the following steps: • 1. Each well was prepared by sequential addition of: • a. DMSO (control; columns 1-2 and 23-24) or compound in DMSO—addition was performed using acoustic transfer of nl volumes of stock compound to give final test concentrations of 36, 12, 4, 1.3, 0.44, 0.148, 0.049, 0.016, 0.005 and 0.002 μM. All wells were backfilled with DMSO to a final total volume in the well of 100 nl. • b. Following compound/DMSO addition in step (a), 40 μL of cell suspension (5×10^5 cells/mL) was added to provide a final cell concentration of 20,000 cells per well, and • c. Following cell addition in step (b), 10 μL of 5×TSQ cocktail (except to positive controls; […]) was added to each well. • 2. After 48 hours, plate was removed from the 37° C. incubator and equilibrated to room temperature for 45 minutes. • 3. 15 μL of room temperature CellTitre-Glo2™ (Promega™) was added to each well. • 4. Shook plates for 2 minutes (˜600 rpm) and incubated at room temperature for 15 minutes to allow signal to stabilise. • 5. Read luminescence readout on a plate reader.
Percent viability was calculated for each compound according to equation (2):
[formula] • wherein • RawData is the readout of any cell containing a compound of the invention • TA is the total activity provided by the luminescence readout from DMSO only wells (columns 2 and 24)=100% viability • NSA is the non-specific activity provided by DMSO+TSQ wells (columns 1 and 23)=0% viability
Curve fitting: 10-point titration curves are fitted with the 4-parameter logistic nonlinear regression model and the IC50 reported is the inflection point of the curve.
Analysis: Data was loaded into Dotmatics™ and visualised using the Tibco® Spotfire™ software. 10 points titration curves were fitted with the 4-parameter logistic nonlinear regression model and the IC50 reported reflect the inflection point of the curve for curve fitting.
Assay involving the TSQ cocktail (T: TNF; S: Smac mimetic; Q: Q-VD-OPh): TSQ treatment ensures that cells specifically undergo necroptotic cell death. TNF activates the TNF receptor, Smac mimetic directs the signal away from proinflammatory signaling and toward the RIP1/RIP3-mediated cell death pathways, and Q-VD-OPh ensures that the apoptotic response is blocked leaving only the programmed necrosis response. The compounds' activity (solution in DMSO) tested in this TSQ-induced assay was evaluated by determining the number of viable cells in culture by measuring the amount of ATP present as measured by CelltiterGlo.

U937 cells = experiment: Counter screen: cell viability without TSQ cocktail (off-target effect); parameters: species or system human; conditions: Homo sapiens, U-937, Table 38, read-out: Off-target effect (IC50 cell-based assay)
Description: Counter screen: In parallel, all compounds were tested for their ability to affect cell viability. The same U937 cells were treated with compound in DMSO without the TSQ cocktail. This counter screen enabled evaluation of off-target effects. In this case, cell viability was measured by CelltiterGlo.

MLKL (full length) = MLKL (full length) (Homo sapiens (Human), UniProt Q8NB16); experiment: KINOMEscan binding assay, MLKL (full length); conditions: Table 36
Chain of MLKL (full length) (Q8NB16 whole entry): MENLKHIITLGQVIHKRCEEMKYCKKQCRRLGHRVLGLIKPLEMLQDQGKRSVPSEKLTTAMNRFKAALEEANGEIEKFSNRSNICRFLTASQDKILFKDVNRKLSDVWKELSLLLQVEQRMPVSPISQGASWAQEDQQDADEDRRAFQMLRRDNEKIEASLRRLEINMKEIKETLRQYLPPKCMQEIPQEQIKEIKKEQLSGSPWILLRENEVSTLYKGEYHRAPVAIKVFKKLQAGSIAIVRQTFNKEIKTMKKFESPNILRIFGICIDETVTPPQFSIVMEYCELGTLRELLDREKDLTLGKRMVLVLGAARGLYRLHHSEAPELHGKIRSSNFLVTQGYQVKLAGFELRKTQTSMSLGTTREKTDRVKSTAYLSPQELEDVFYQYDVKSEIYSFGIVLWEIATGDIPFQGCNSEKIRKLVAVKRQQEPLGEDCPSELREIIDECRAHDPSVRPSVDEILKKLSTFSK
Description: Kinase assays. For most assays, kinase-tagged T7 phage strains were grown in parallel in 24-well blocks in an E. coli host derived from the BL21 strain. E. coli were grown to log-phase and infected with T7 phage from a frozen stock (multiplicity of infection=0.4) and incubated with shaking at 32° C. until lysis (90-150 minutes).
The Hill Slope was set to −1.

SMILES	IC50 [1] [µM]	IC50 (U937 cells) [µM]	Kd (MLKL (full length)) [µM]
Cc1ncsc1-c1ccc(CNC(=O)[C@@H]2C[C@@H](O)CN2C(=O)[C@@H](NC(=O)CCCCOC(=O)c2ccc(Nc3[nH]nc(-c4ccc(NS(=O)(=O)C(F)F)cc4)c3C(N)=O)nc2)C(C)(C)C)cc1 [Compound 1049, 4-{[(2S)-1-[(2S,4R)-4-hydroxy-2-({[4-(4-methyl-1,3-thiazol-5-yl)phenyl]methyl}carbamoyl)pyrrolidine-1-yl]-3,3-dimethyl-1-oxobutan-2-yl]carbamoyl}butyl 6-({4-carbamoyl-3-[4-(difluoromethanesulfonamido)phenyl]-1H-pyrazol-5-yl}amino)pyridine-3-carboxylate]	1 to 10	> 10	< 0.01
CCS(=O)(=O)Nc1ccc(-c2n[nH]c(Nc3ccnc(OCCCCC(=O)N[C@H](C(=O)N4C[C@@H](O)C[C@H]4C(=O)NCc4ccc(-c5scnc5C)cc4)C(C)(C)C)c3)c2C(N)=O)cc1 [Compound 1014, 3-(4-ethanesulfonamidophenyl)-5-{[2-(4-{[(2S)-1-[(2S,4S)-4-hydroxy-2-({[4-(4-methyl-1,3-thiazol-5-yl)phenyl]methyl}carbamoyl)pyrrolidin-1-yl]-3,3-dimethyl-1-oxobutan-2-yl]carbamoyl}butoxy)pyridin-4-yl]amino}-1H-pyrazole-4-carboxamide]	> 10	> 10	< 0.01
CCS(=O)(=O)Nc1ccc(-c2n[nH]c(Nc3ccc(C(=O)OCCCCC(=O)N[C@H](C(=O)N4C[C@H](O)C[C@H]4C(=O)NCc4ccc(-c5scnc5C)cc4)C(C)(C)C)cn3)c2C(N)=O)cc1OCc1ccc(F)cc1 [Compound 1052, 4-{[(2S)-1-[(2S,4R)-4-hydroxy-2-{{[4-(4-methyl-1,3-thiazol-5-yl)phenyl]methyl}carbamoyl)pyrrolidin-1-yl]-3,3-dimethyl-1-oxobutan-2-yl]carbamoyl}butyl 6-[(4-carbamoyl-3-{4-ethanesulfonamido-3-[(4-fluorophenyl)methoxy]phenyl}-1H-pyrazol-5-yl)amino]pyridine-3-carboxylate]	> 10	> 10	1 to 30
Cc1ncsc1-c1ccc(CNC(=O)[C@@H]2C[C@@H](O)CN2C(=O)[C@@H](NC(=O)CCCn2ccc(Nc3[nH]nc(-c4ccc(NS(=O)(=O)C(F)F)c(O[C@@H](C)c5ccc(F)cc5)c4)c3C(N)=O)n2)C(C)(C)C)cc1 [Compound 1033, 3-[4-(difluoromethanesulfonamido)-3-[(1S)-1-(4-fluorophenyl)ethoxy]phenyl]-5-{[1-(3-{[(2S)-1-[(2S,4R)-4-hydroxy-2-({[4-(4-methyl-1,3-thiazol-5-yl)phenyl]methyl}carbamoyl)pyrrolidin-1-yl]-3,3-dimethyl-1-oxobutan-2-yl]carbamoyl}propyl)-1H-pyrazol-3-yl]amino}-1H-pyrazole-4-carboxamide]	1 to 10	> 10	< 0.01
Cc1ncsc1-c1ccc(CNC(=O)[C@@H]2C[C@@H](O)CN2C(=O)[C@@H](NC(=O)CCCCC#Cc2ccc(Nc3[nH]nc(-c4ccc(NS(=O)(=O)C(F)F)c(O[C@@H](C)c5ccc(F)cc5)c4)c3C(N)=O)nc2)C(C)(C)C)cc1 [Compound 1047, 3-[4-(difluoromethanesulfonamido)-3-[(1 S)-1-(4-fluorophenyl)ethoxy]phenyl]-5-{[5-(6-{[(2S)-1-[(2S,4R)-4-hydroxy-2-({[4-(4-methyl-1,3-thiazol-5-yl)phenyl]methyl}carbamoyl)pyrrolidin-1-yl]-3,3-dimethyl-1-oxobutan-2-yl]carbamoyl}hex-1-yn-1-yl)pyridin-2-yl]amino}-1H-pyrazole-4-carboxamide]	< 1	1 to 10	0.01 to 1
Cc1ncsc1-c1ccc(CNC(=O)[C@@H]2C[C@@H](O)CN2C(=O)[C@@H](NC(=O)CCCCCCOc2ccc(Nc3[nH]nc(-c4ccc(NS(=O)(=O)C(F)F)c(O[C@@H](C)c5ccc(F)cc5)c4)c3C(N)=O)nc2)C(C)(C)C)cc1 [Compound 1059, 3-[4-(difluoromethanesulfonamido)-3-[(1S)-1-(4-fluorophenyl)ethoxy]phenyl]-5-({5-[(6-{[(2S)-1-[(2S,4R)-4-hydroxy-2-({[4-(4-methyl-1,3-thiazol-5-yl)phenyl]methyl}carbamoyl)pyrrolidin-1-yl]-3,3-dimethyl-1-oxobutan-2-yl]carbamoyl}hexyl)oxy]pyridin-2-yl}amino)-1H-pyrazole-4-carboxamide]	< 1	1 to 10	
CCS(=O)(=O)Nc1ccc(-c2n[nH]c(Nc3ccnc(OCCOCCOCCOCCNC(=O)COc4cccc5c4C(=O)N(C4CCC(=O)NC4=O)C5=O)c3)c2C(N)=O)cc1 (stereo not shown) [Compound 1002, 5-({2-[2-(2-{2-[2-(2-{[2-(2,6-dioxopiperidin-3-yl)-1,3-dioxo-2,3-dihydro-1H-isoindol-4-yl]oxy}acetamido)ethoxy]ethoxy}ethoxy)ethoxy]pyridin-4-yl}amino)-3-(4-ethanesulfonamidophenyl)-1H-pyrazole-4-carboxamide]	> 10	> 10	
CCS(=O)(=O)Nc1ccc(-c2n[nH]c(Nc3ccnc(OCCOCCOCCNC(=O)COc4cccc5c4C(=O)N(C4CCC(=O)NC4=O)C5=O)c3)c2C(N)=O)cc1 (stereo not shown) [Compound 1004, 5-((2-(2-(2-(2-(2-((2-(2,6-dioxopiperidin-3-yl)-1,3-dioxoisoindolin-4-yl)oxy)acetamido)ethoxy)ethoxy)ethoxy)pyridin-4-yl)amino)-3-(4-(ethylsulfonamido)phenyl)-1H-pyrazole-4-carboxamide]	> 10	> 10	
Cc1ncsc1-c1ccc(CNC(=O)[C@@H]2C[C@@H](O)CN2C(=O)[C@@H](NC(=O)c2cccc(COc3ccc(Nc4[nH]nc(-c5ccc(NS(=O)(=O)C(F)F)c(O[C@@H](C)c6ccc(F)cc6)c5)c4C(N)=O)nc3)c2)C(C)(C)C)cc1 [Compound 1031, 3-(4-(difluoromethylsulfonamido)-3-((S)-1-(4-fluorophenyl)ethoxy)phenyl)-5-((5-((3-(((S)-1-((2S,4R)-4-hydroxy-2-((4-(4-methylthiazol-5-yl)benzyl)carbamoyl)pyrrolidin-1-yl)-3,3-dimethyl-1-oxobutan-2-yl)carbamoyl)benzyl)oxy)pyridin-2-yl)amino)-1H-pyrazole-4-carboxamide]	< 1	1 to 10	
CCS(=O)(=O)Nc1ccc(-c2n[nH]c(Nc3ccnc(OCCOCCNC(=O)COc4cccc5c4C(=O)N(C4CCC(=O)NC4=O)C5=O)c3)c2C(N)=O)cc1 (stereo not shown) [Compound 1003, 5-((2-(2-(2-(2-((2-(2,6-dioxopiperidin-3-yl)-1,3-dioxoisoindolin-4-yl)oxy)acetamido)ethoxy)ethoxy)pyridin-4-yl)amino)-3-(4-(ethylsulfonamido)phenyl)-1H-pyrazole-4-carboxamide]	> 10	> 10	
